Like-named read-outs stand apart in the source and are kept apart here.
Legend:
woolly cupgrass = test: Test C pre-/postemergence herbicide test; format: in vivo, Eriochloa villosa
Outline: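 Preemergence: seeds planted and treated with compound in non-phytotoxic solvent with surfactant; postemergence: plants at 2 to 18 cm (1- to 4-leaf stage) sprayed likewise. Kept in greenhouse 12 to 14 days, then visually rated against controls, 0 (no effect) to 100 (complete control).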

redroot pigweed = test: Test A pre-/postemergence herbicide test; format: in vivo, Amaranthus retroflexus; conditions: for pest or weed control at 500 g/ha / pest or weed control at 2000 g/ha: Amaranthus retroflexus, 240 h
Outline: (§1)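 Sandy loam soil given preemergence directed spray; plants at 2 to 10 cm, one- to two-leaf stage, sprayed to runoff postemergence, compounds in non-phytotoxic solvent with surfactant. Injury rated visually versus untreated controls after about ten greenhouse days, 0 (no effect) to 100 (complete control); dash means not tested.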

velvetleaf = test: Test A pre-/postemergence herbicide test; format: in vivo, Abutilon theophrasti; conditions: for pest or weed control at 2000 g/ha / pest or weed control at 500 g/ha: Abutilon theophrasti, 240 h
Outline: as §1

[1] = Eriochloa villosa, post-emergence, 312 h, Postemergence, 250 g ai/ha, scale 0 to 100, 0 no effect, 100 complete control, read-out: Plant response rating, Cupgrass, Woolly
[2] = Eriochloa villosa, post-emergence, 312 h, postemergence, 125 g ai/ha, scale 0 to 100, read-out: Plant response rating, Cupgrass, Woolly
[3] = post-emergence, Postemergence, 500 g ai/ha, 0 to 100 scale, 0 no effect, 100 complete control, read-out: Plant response rating, Pigweed
[4] = post-emergence, Postemergence, 2000 g ai/ha, 0 to 100 scale, 0 no effect, 100 complete control, read-out: Plant response rating, Pigweed
[5] = pre-emergence, Preemergence, 500 g ai/ha, visual rating, 0 to 100 scale (0 no effect, 100 complete control), read-out: Pigweed plant response rating
[6] = pre-emergence, Preemergence, 2000 g ai/ha, 0 to 100 scale, 0 no effect, 100 complete control, read-out: Pigweed plant response rating
[7] = post-emergence, Postemergence, 2000 g ai/ha, 0 to 100 scale, 0 no effect, 100 complete control, read-out: Plant response rating, Velvetleaf
[8] = pre-emergence, Preemergence, 500 g ai/ha, visual rating, 0 to 100 scale (0 no effect, 100 complete control), read-out: Velvetleaf plant response rating
[9] = pre-emergence, Preemergence, 2000 g ai/ha, visual rating, 0 to 100 scale (0 no effect, 100 complete control), read-out: Velvetleaf plant response rating
[10] = Postemergence, 500 g ai/ha, scale 0 to 100
[11] = 125 g ai/ha, scale 0 (no effect) to 100 (complete control), visual, 12 to 14 days, preemergence
[12] = 250 g ai/ha, scale 0 to 100 (0 no effect, 100 complete control), visual, 12 to 14 days, preemergence
[13] = Postemergence, 500 g ai/ha, 0 to 100 scale, 0 no effect, 100 complete control
[14] = Postemergence, 2000 g ai/ha, 0 to 100 scale, 0 no effect, 100 complete control
[15] = Preemergence, 500 g ai/ha, visual rating, 0 to 100 scale (0 no effect, 100 complete control)
[16] = Preemergence, 2000 g ai/ha, visual rating, 0 to 100 scale (0 no effect, 100 complete control)
[17] = preemergence, 500 g ai/ha, visual injury, 0 to 100 scale (0 no effect, 100 complete control)
[18] = Preemergence, 500 g ai/ha, scale 0 to 100, 0 no effect, 100 complete control
[19] = Postemergence, 250 g ai/ha, scale 0 to 100, 0 no effect, 100 complete control
[20] = postemergence, 125 g ai/ha, scale 0 to 100
[21] = postemergence, 62 g ai/ha, scale 0 to 100
[22] = 62 g ai/ha, preemergence, scale 0 to 100
[23] = 250 g ai/ha, scale 0-100, preemergence

CCOC(=O)c1cccc(NC(=O)c2cc(C(C)(C)C)nn2CC)c1 [Compound 80, ethyl 3-[[[3-(1,1-dimethylethyl)-1-ethyl-1H-pyrazol-5-yl]carbonyl]-amino]benzoate]
Plant response rating (0 = no effect, 100 = complete control), Cupgrass, Woolly (woolly cupgrass; 62 g ai/ha, preemergence): 0
pest or weed control at 250 g/ha (woolly cupgrass; [1]): 90%
pest or weed control at 125 g/ha (woolly cupgrass; [2]): 90%
pest or weed control at 62 g/ha (woolly cupgrass; Eriochloa villosa, post-emergence, 312 h, postemergence, 62 g ai/ha, scale 0 to 100, read-out: Plant response rating, Cupgrass, Woolly): 80%
pest or weed control at 31 g/ha (woolly cupgrass; Eriochloa villosa, pre-emergence, 312 h, 31 g ai/ha, preemergence, scale 0 to 100, read-out: Plant response rating, Cupgrass, Woolly): 0%
pest or weed control at 125 g/ha (woolly cupgrass; Eriochloa villosa, pre-emergence, 312 h, 125 g ai/ha, scale 0 (no effect) to 100 (complete control), visual, 12 to 14 days, read-out: Plant response rating, Cupgrass, Woolly): 10%
pest or weed control at 250 g/ha (woolly cupgrass; Eriochloa villosa, pre-emergence, 312 h, 250 g ai/ha, scale 0 to 100 (0 no effect, 100 complete control), visual, 12 to 14 days, read-out: Plant response rating, Cupgrass, Woolly): 10%
pest or weed control at 500 g/ha (redroot pigweed; [3]): 100%
pest or weed control at 2000 g/ha (redroot pigweed; [4]): 100%
pest or weed control at 500 g/ha (redroot pigweed; [5]): 70%
pest or weed control at 2000 g/ha (redroot pigweed; [6]): 90%
pest or weed control at 2000 g/ha (velvetleaf; [7]): 75%
pest or weed control at 500 g/ha (velvetleaf; [8]): 10%
pest or weed control at 2000 g/ha (velvetleaf; [9]): 10%

CCn1nc(C(C)(C)C)cc1C(=O)Nc1cccc(C(=O)OCCF)c1 [Compound 82, 2-fluoroethyl 3-[[[3-(1,1-dimethylethyl)-1-ethyl-1H-pyrazol-5-yl]-carbonyl]amino]benzoate]
pest or weed control at 250 g/ha (woolly cupgrass; [1]): 80%
pest or weed control at 125 g/ha (woolly cupgrass; [2]): 60%
Cupgrass, Woolly plant response rating (woolly cupgrass; [10]): 80
pest or weed control at 500 g/ha (redroot pigweed; [3]): 50%
pest or weed control at 2000 g/ha (redroot pigweed; [4]): 50%
pest or weed control at 500 g/ha (redroot pigweed; [5]): 5%
pest or weed control at 2000 g/ha (redroot pigweed; [6]): 35%
pest or weed control at 2000 g/ha (velvetleaf; [7]): 30%
pest or weed control at 500 g/ha (velvetleaf; [8]): 0%
pest or weed control at 2000 g/ha (velvetleaf; [9]): 0%

CCOC(=O)c1cc(NC(=O)c2cc(C(C)(C)C)nn2CC)ccc1OCC [Compound 95]
Plant response rating, Cupgrass, Woolly (woolly cupgrass; 31 g ai/ha, preemergence, scale 0 to 100): 0
Plant response rating (0 = no effect, 100 = complete control), Cupgrass, Woolly (woolly cupgrass; 62 g ai/ha, preemergence): 5
Plant response rating, Cupgrass, Woolly (woolly cupgrass; [11]): 10
Plant response rating, Cupgrass, Woolly (woolly cupgrass; [12]): 30
Pigweed plant response rating (redroot pigweed; [13]): 85
Plant response rating, Pigweed (redroot pigweed; [14]): 100
Pigweed plant response rating (redroot pigweed; [15]): 100
Pigweed plant response rating (redroot pigweed; Preemergence, 2000 g ai/ha, 0 to 100 scale, 0 no effect, 100 complete control): 100
Velvetleaf plant response rating (velvetleaf; [13]): 45
Plant response rating, Velvetleaf (velvetleaf; [14]): 50
Velvetleaf plant response rating (velvetleaf; [15]): 50
Velvetleaf plant response rating (velvetleaf; [16]): 80

CC(=O)c1cccc(NC(=O)c2cc(C(C)(C)C)nn2CCF)c1 [Compound 128]
Plant response rating (0 = no effect, 100 = complete control), Cupgrass, Woolly (woolly cupgrass; 62 g ai/ha, preemergence): 10
Plant response rating, Cupgrass, Woolly (woolly cupgrass; [11]): 20
Pigweed plant response rating (redroot pigweed; [13]): 50
Plant response rating, Pigweed (redroot pigweed; [14]): 80
Pigweed plant response rating (redroot pigweed; [16]): 95
Pigweed plant response rating (redroot pigweed; [17]): 60
Velvetleaf plant response rating (velvetleaf; [13]): 20
Plant response rating, Velvetleaf (velvetleaf; [14]): 35
Velvetleaf plant response rating (velvetleaf; [16]): 85
Velvetleaf plant response rating (velvetleaf; [17]): 75

CCCCOc1cccc(NC(=O)c2cc(C(C)(C)C)nn2CC)c1 [Compound 137]
Plant response rating (0 = no effect, 100 = complete control), Cupgrass, Woolly (woolly cupgrass; 62 g ai/ha, preemergence): 0
Plant response rating, Cupgrass, Woolly (woolly cupgrass; [11]): 0
Plant response rating, Cupgrass, Woolly (woolly cupgrass; [12]): 5
Cupgrass, Woolly plant response rating (woolly cupgrass; [18]): 40
Pigweed plant response rating (redroot pigweed; [13]): 90
Plant response rating, Pigweed (redroot pigweed; [14]): 100
Pigweed plant response rating (redroot pigweed; [16]): 90
Pigweed plant response rating (redroot pigweed; [17]): 60
Velvetleaf plant response rating (velvetleaf; [13]): 60
Plant response rating, Velvetleaf (velvetleaf; [14]): 70
Velvetleaf plant response rating (velvetleaf; [16]): 35
Velvetleaf plant response rating (velvetleaf; [17]): 20

C#CCNC(=O)c1cccc(NC(=O)c2cc(C(C)(C)C)nn2CC)n1 [Compound 147]
Plant response rating (0 = no effect, 100 = complete control), Cupgrass, Woolly (woolly cupgrass; 62 g ai/ha, preemergence): 0
Plant response rating, Cupgrass, Woolly (woolly cupgrass; [11]): 10
Plant response rating, Cupgrass, Woolly (woolly cupgrass; [12]): 10
Cupgrass, Woolly plant response rating (woolly cupgrass; [10]): 30
Plant response rating, Cupgrass, Woolly (woolly cupgrass; [19]): 10
Cupgrass, Woolly plant response rating (woolly cupgrass; [18]): 60
Plant response rating, Cupgrass, Woolly (woolly cupgrass; [20]): 0
Plant response rating, Cupgrass, Woolly (woolly cupgrass; [21]): 0
Pigweed plant response rating (redroot pigweed; [13]): 90
Plant response rating, Pigweed (redroot pigweed; [14]): 100
Pigweed plant response rating (redroot pigweed; [16]): 100
Pigweed plant response rating (redroot pigweed; [17]): 85
Velvetleaf plant response rating (velvetleaf; [13]): 30
Plant response rating, Velvetleaf (velvetleaf; [14]): 50
Velvetleaf plant response rating (velvetleaf; [16]): 85
Velvetleaf plant response rating (velvetleaf; [17]): 25

CCN(CC)C(=O)c1ccnc(NC(=O)c2cc(C(C)(C)C)nn2CC)c1 [Compound 153]
Plant response rating, Cupgrass, Woolly (woolly cupgrass; [22]): 0
Plant response rating, Cupgrass, Woolly (woolly cupgrass; [11]): 0
Plant response rating, Cupgrass, Woolly (woolly cupgrass; [12]): 0
Cupgrass, Woolly plant response rating (woolly cupgrass; [18]): 60
Pigweed plant response rating (redroot pigweed; [13]): 95
Plant response rating, Pigweed (redroot pigweed; [14]): 100
Pigweed plant response rating (redroot pigweed; [16]): 100
Pigweed plant response rating (redroot pigweed; [17]): 100
Velvetleaf plant response rating (velvetleaf; [13]): 40
Plant response rating, Velvetleaf (velvetleaf; [14]): 65
Velvetleaf plant response rating (velvetleaf; [16]): 80
Velvetleaf plant response rating (velvetleaf; [17]): 15

CCN(CC)C(=O)c1cccc(NC(=O)c2sc(C(C)(C)C)nc2C)c1 [Compound 199]
Plant response rating, Cupgrass, Woolly (woolly cupgrass; [22]): 0
Plant response rating, Cupgrass, Woolly (woolly cupgrass; [11]): 0
Plant response rating, Cupgrass, Woolly (woolly cupgrass; [23]): 40
Cupgrass, Woolly plant response rating (woolly cupgrass; [18]): 70
Pigweed plant response rating (redroot pigweed; [13]): 80
Plant response rating, Pigweed (redroot pigweed; [14]): 80
Pigweed plant response rating (redroot pigweed; [16]): 100
Pigweed plant response rating (redroot pigweed; [17]): 100
Velvetleaf plant response rating (velvetleaf; [13]): 30
Plant response rating, Velvetleaf (velvetleaf; [14]): 35
Velvetleaf plant response rating (velvetleaf; [16]): 90
Velvetleaf plant response rating (velvetleaf; [17]): 35

CCc1nc(C(C)(C)C)sc1C(=O)Nc1cccc(C(=O)N(CC)CC)c1 [Compound 205]
Plant response rating, Cupgrass, Woolly (woolly cupgrass; [22]): 0
Plant response rating, Cupgrass, Woolly (woolly cupgrass; [11]): 10
Plant response rating, Cupgrass, Woolly (woolly cupgrass; [23]): 10
Cupgrass, Woolly plant response rating (woolly cupgrass; [18]): 50
Pigweed plant response rating (redroot pigweed; [13]): 50
Plant response rating, Pigweed (redroot pigweed; [14]): 65
Pigweed plant response rating (redroot pigweed; [16]): 100
Pigweed plant response rating (redroot pigweed; [17]): 100
Velvetleaf plant response rating (velvetleaf; [13]): 20
Plant response rating, Velvetleaf (velvetleaf; [14]): 30
Velvetleaf plant response rating (velvetleaf; [16]): 100
Velvetleaf plant response rating (velvetleaf; [17]): 70

CCc1nc(C(C)(C)C)sc1C(=O)Nc1cccc(C(=O)NCC2CC2)c1 [Compound 212]
Plant response rating, Cupgrass, Woolly (woolly cupgrass; [22]): 0
Plant response rating, Cupgrass, Woolly (woolly cupgrass; [11]): 0
Plant response rating, Cupgrass, Woolly (woolly cupgrass; [23]): 20
Plant response rating, Cupgrass, Woolly (woolly cupgrass; 500 g ai/ha, scale 0 to 100 (0 no effect, 100 complete control), visual, 12 to 14 days, preemergence): 30
Cupgrass, Woolly plant response rating (woolly cupgrass; [10]): 40
Plant response rating, Cupgrass, Woolly (woolly cupgrass; [19]): 30
Plant response rating, Cupgrass, Woolly (woolly cupgrass; [20]): 5
Plant response rating, Cupgrass, Woolly (woolly cupgrass; [21]): 5
Pigweed plant response rating (redroot pigweed; [13]): 75
Plant response rating, Pigweed (redroot pigweed; [14]): 90
Pigweed plant response rating (redroot pigweed; [16]): 100
Pigweed plant response rating (redroot pigweed; [17]): 100
Velvetleaf plant response rating (velvetleaf; [13]): 35
Plant response rating, Velvetleaf (velvetleaf; [14]): 35
Velvetleaf plant response rating (velvetleaf; [16]): 100
Velvetleaf plant response rating (velvetleaf; [17]): 65

CCNC(=O)c1ccc(F)c(NC(=O)c2cc(C3(C)CC3)nn2CC)c1 [Compound 300]
Plant response rating, Cupgrass, Woolly (woolly cupgrass; [22]): 20
Plant response rating, Cupgrass, Woolly (woolly cupgrass; [11]): 50
Plant response rating, Cupgrass, Woolly (woolly cupgrass; [23]): 60
Pigweed plant response rating (redroot pigweed; [13]): 90
Plant response rating, Pigweed (redroot pigweed; [14]): 100
Pigweed plant response rating (redroot pigweed; [16]): 100
Pigweed plant response rating (redroot pigweed; [17]): 95
Velvetleaf plant response rating (velvetleaf; [13]): 60
Plant response rating, Velvetleaf (velvetleaf; [14]): 80
Velvetleaf plant response rating (velvetleaf; [16]): 100
Velvetleaf plant response rating (velvetleaf; [17]): 85

From patent US20060069132A1, “Azolecarboxamide herbicides” (priority 2004, published 2006)
